The source of these data is US6790652B1, “Method and apparatus for high density format screening for bioactive molecules” (BioImage A/S, priority 1998, dated 2004).

Molecules are shown by their SMILES. Like-named read-outs stand apart in the source and are kept apart here.

The test system of one test is BHKhM1 cells. The experiment in a line: Fluo-3 calcium response of BHKhM1 cells on porous membrane lowered onto compound spots on glass. It is filed as cell-based. The following applies: approx. 10 nanoliters. As for the experimental part:
Ionomycin was printed onto a glass surface at two concentrations (10 mM and 1 mM), and thapsigargin was printed onto the surface at 1 mM. All spots were allowed to dry. The volume of liquid spotted was approx. 10 nanoliters per spot. At the time indicated as 0 s the still-wet membrane with the cells was lowered down onto the glass surface so that the membrane and the glass came in direct contact, thereby dissolving the compounds deposited in the spots.

Test [1] concerns A10 smooth muscle cells. To be noted: for response of detector cells (JC-1 fluorescence): five-concentration grid. Here is the method:
Cells were grown to confluence on tissue culture treated polystyrene in DMEM 10% FCS, 100 μg/ml streptomycin and 100 IU/ml penicillin. […] FCCP. FCCP (Sigma) was printed onto a supported porous aluminium oxide filter (Anopore, Whatman International Ltd, Maidstone, Kent, UK) in a 5×5 spot grid, at a single concentration of 50 μM in DMSO, or as five rows of five spots (50, 5, […], 0.05 and 0.005 μM in DMSO) and allowed to dry. The volume of liquid in each spot was approximately 1 nanoliter. The A10 cells were loaded for 25 min in KRW supplemented with 10% FCS and 5 μM JC-1 (Molecular Probes Inc.) at 37° C. After three washes in KRW, the cells were placed on the stage of a Nikon Diaphot epifluorescence microscope and imaged using a 2× plan apochromatic objective and a CCD camera (Princeton Instruments, NY USA). The cells were excited by 450-490 nm light and light emitted from the cells was filtered by a dichroic mirror (505 nm) and an emission filter (510-560 nm). Exposure/ntegration times of 0.5 s were used and images acquired at 4 s intervals. At the time indicated as 0 in FIGS. 8 and 9 a filter with spots of FCCP in the patterns mentioned above was lowered down into the buffer overlying the cells and rapidly adjusted to a distance of about 300 μm above the cell layer and thereafter fixed in that position.

In test [2] the test system is A10 smooth muscle cells. To be noted: read-out: EC50 for a mitochondrial depolarisation in these cells, known value; cited from earlier work.

`C/C=C(/C)C(=O)O[C@H]1C(C)=C2[C@H]([C@@H]1OC(=O)CCCCCCC)[C@@](C)(OC(C)=O)C[C@H](OC(=O)CCC)[C@@]1(O)[C@H]2OC(=O)[C@@]1(C)O` [thapsigargin]: in the test on BHKhM1 cells (spots printed at 1 mM), the “Fluo-3 fluorescence response (time profile)” value was “transient and lower in intensity than that of either concentration of ionomycin”.

For `N#CC(C#N)=NNc1ccc(OC(F)(F)F)cc1` [FCCP, carbonyl cyanide p-trifluoromethoxyphenylhydrazone], the “response of detector cells (JC-1 fluorescence)” value with A10 smooth muscle cells [1] (spot concentration 0.005 μM in DMSO) was “do not show detectable responses”; with A10 smooth muscle cells [1] (spot concentration 0.05 μM in DMSO) it was “do not show detectable responses”; in the test on A10 smooth muscle cells [1] (spot concentration 0.5 μM in DMSO), “clearly give positive responses”; in the test with A10 smooth muscle cells [1] (spot concentration 5 μM in DMSO) it was “clearly give positive responses”; with A10 smooth muscle cells [1] (spot concentration 50 μM in DMSO) it was “quickest response”. In addition, the “fluorescence intensity time profile (mitochondrial membrane depolarisation)” value with A10 smooth muscle cells [1] (spots of 50 μM in DMSO, 5×5 grid, single concentration) is “steep rise in fluorescence intensity”. Also, in the test on A10 smooth muscle cells [1] (spots of 50 μM in DMSO, approx. 1 nanoliter, five central spots), the “lag phase before rise in fluorescence intensity” value fell in the range of 10 to 15 s. Moreover, in the test with A10 smooth muscle cells [2], the EC50 is around 8 nM.

Turning to `C[C@H](CCC(=O)O)C[C@H](C)C[C@H](C)C(=O)/C=C(\O)[C@H](C)C[C@H](C)C/C=C/[C@@H](C)[C@@H](O)[C@@H](C)[C@@H](O)C[C@@H]1CC[C@@](C)([C@H]2CC[C@@](C)([C@@H](C)O)O2)O1` [Ionomycin, ionomycin], the “Fluo-3 fluorescence response (time profile)” value in the test on BHKhM1 cells (spots printed at 1 mM) was “sustained responses”. In the test with BHKhM1 cells (spots printed at 10 mM), the “Fluo-3 fluorescence response (onset, spatial size, intensity)” value is “earliest, spatially largest, and most intense response”; the “Fluo-3 fluorescence response (time profile)” value is listed as “sustained responses”.
